In patent publication US20240158446A1, “CYCLIC COMPOUND HAVING SELECTIVE INHIBITORY ACTION ON KRAS OVER HRAS AND NRAS” (CHUGAI SEIYAKU KABUSHIKI KAISHA, priority 2021, published 2024):
Read-outs that look alike come from different tables or passages of the source.

Columns and labels:
[1] = biological target: GDP-bound NRAS wild-type protein (Homo sapiens, UniProt P01111); experiment: Binding to NRAS by surface plasmon resonance (SPR), Single Cycle Kinetics; conditions: for NRAS/KRAS (ratio of KD value for NRAS to KD value for KRAS): SPR, GDP-bound NRAS wild-type protein vs GDP-bound KRAS wild-type protein, KD ratio class; for NRAS/KRAS (ratio of KD value with respect to GDP-bound NRAS wild-type protein to KD value with respect to KRAS): SPR KD ratio NRAS/KRAS, class symbols
[2] = biological target: GDP-bound HRAS wild-type protein (Homo sapiens, UniProt P01112); experiment: Binding to HRAS by surface plasmon resonance (SPR), Single Cycle Kinetics; conditions: for HRAS/KRAS (ratio of KD value for HRAS to KD value for KRAS): SPR, GDP-bound HRAS wild-type protein vs GDP-bound KRAS wild-type protein, KD ratio class; for HRAS/KRAS (ratio of KD value with respect to GDP-bound HRAS wild-type protein to KD value with respect to KRAS): SPR KD ratio HRAS/KRAS, class symbols
[3] = biological target: GDP-bound KRAS wild-type protein (Homo sapiens, UniProt P01116); experiment: Binding to KRAS by surface plasmon resonance (SPR), Single Cycle Kinetics; conditions: 1:1 binding model, GDP-bound KRAS wild-type protein, read-out: KRAS KD
Chain of GDP-bound KRAS wild-type protein (P01116 whole entry): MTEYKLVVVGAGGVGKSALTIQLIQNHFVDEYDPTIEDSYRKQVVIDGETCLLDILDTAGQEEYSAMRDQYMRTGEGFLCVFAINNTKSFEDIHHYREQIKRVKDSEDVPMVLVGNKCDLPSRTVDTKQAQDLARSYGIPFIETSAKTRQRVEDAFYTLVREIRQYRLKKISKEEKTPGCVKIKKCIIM

Chain of GDP-bound NRAS wild-type protein (P01111 whole entry): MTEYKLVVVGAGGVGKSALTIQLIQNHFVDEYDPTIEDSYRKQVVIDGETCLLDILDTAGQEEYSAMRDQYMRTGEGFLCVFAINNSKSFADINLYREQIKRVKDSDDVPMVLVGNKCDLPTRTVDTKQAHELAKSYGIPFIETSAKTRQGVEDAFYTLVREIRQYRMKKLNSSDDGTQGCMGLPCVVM
Chain of GDP-bound HRAS wild-type protein (P01112 whole entry): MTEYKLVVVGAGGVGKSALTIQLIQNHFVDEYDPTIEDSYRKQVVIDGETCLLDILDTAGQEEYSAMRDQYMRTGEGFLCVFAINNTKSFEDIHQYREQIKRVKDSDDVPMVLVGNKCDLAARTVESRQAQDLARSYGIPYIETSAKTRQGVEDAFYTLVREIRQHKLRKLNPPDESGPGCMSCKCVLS

Kd ([3]; SPR, Single Cycle Kinetics) [pM]	Kd ([3]; SPR Single Cycle Kinetics) [pM]	Structure (SMILES)	NRAS/KRAS (ratio of KD value for NRAS to KD value for KRAS) [1]	HRAS/KRAS (ratio of KD value for HRAS to KD value for KRAS) [2]	NRAS/KRAS (ratio of KD value with respect to GDP-bound NRAS wild-type protein to KD value with respect to KRAS) [1]	HRAS/KRAS (ratio of KD value with respect to GDP-bound HRAS wild-type protein to KD value with respect to KRAS) [2]
57	–	CCO[C@@H]1C[C@H]2C(=O)NC3(CCC3)C(=O)N(C)[C@@H](C3CCCC3)C(=O)N(C)[C@H](C(=O)N(C)CC)CC(=O)N(C)[C@@H](C)C(=O)N[C@@H]([C@@H](C)CC)C(=O)N(C)CC(=O)N(C)[C@H]3C/C=C\CCN(C3=O)[C@@H](Cc3ccc(C(F)(F)F)cc3)C(=O)N(C)CC(=O)N[C@@H](CCc3cc(F)c(C(F)(F)F)c(F)c3)C(=O)N2C1 [PP1302, (2S,8S,12R,14S,20S,23S,27S,30S,36S,38Z)-20-cyclopentyl-8-[2-[3,5-difluoro-4-(trifluoromethyl)phenyl]ethyl]-12-ethoxy-N-ethyl-N,4,19,22,26,27,32,35-octamethyl-30-[(1S)-1-methylpropyl]-3,6,9,15,18,21,25,28,31,34,42-undecaoxo-2-[[4-(trifluoromethyl)phenyl]methyl]spiro[1,4,7,10,16,19,22,26,29,32,35-undecazatricyclo[34.5.1.0^10,14]dotetracont-38-ene-17,1′-cyclobutane]-23-carboxamide]	A (a compound having 10 or more and less than 20 is denoted as A)	A (a compound having 10 or more and less than 20 is denoted as A)	–	–
–	440	CCC(CC)[C@H]1C(=O)N(C)[C@H](C(=O)N(C)C)CC(=O)N(C)[C@H]2CCC/C=C/c3ccc(cc3)C[C@@H](C(=O)N(C)CC(=O)N[C@@H](CCc3ccc(Cl)c(Cl)c3)C(=O)N3CCC[C@H]3C(=O)NC3(CC(C)(C)C3)C(=O)N1C)N1CC/C=C\C[C@@H](C1=O)N(C)C(=O)CN(C)C(=O)[C@H]([C@@H](C)CC)NC2=O [PP2603]	–	–	AA (a compound having 20 or more is denoted as AA)	A (a compound having 10 or more and less than 20 is denoted as A)
–	180	CCO[C@@H]1C[C@H]2C(=O)NC3(CC(C)(C)C3)C(=O)N(C)[C@@H](C3CCCC3)C(=O)N(C)[C@H](C(=O)N(C)C)CC(=O)N(C)[C@@H](CC(F)(F)F)C(=O)N[C@@H]([C@@H](C)CC)C(=O)N(C)CC(=O)N(C)[C@H]3C/C=C\CCN(C3=O)[C@@H](Cc3ccc(C(F)(F)F)cc3)C(=O)N(C)CC(=O)N[C@@H](CCc3ccc(Cl)c(Cl)c3)C(=O)N2C1 [PP2832]	–	–	A (a compound having 10 or more and less than 20 is denoted as A)	A (a compound having 10 or more and less than 20 is denoted as A)
99	–	CC[C@H](C)[C@@H]1NC(=O)[C@H](CC2CC2)N(C)C(=O)C[C@@H](C(=O)N(C)C)N(C)C(=O)[C@H](C2CCCC2)N(C)C(=O)C2(CCCC2)NC(=O)[C@@H]2C[C@H](C)CN2C(=O)[C@H](CCc2cc(F)c(C(F)(F)F)c(F)c2)NC(=O)CN(C)C(=O)[C@H](Cc2ccc(C(F)(F)F)cc2)N2CC/C=C\C[C@@H](C2=O)N(C)C(=O)CN(C)C1=O [PP1511, (2S,8S,12S,14S,20S,23S,27S,30S,36S,38Z)-20-cyclopentyl-27-(cyclopropylmethyl)-8-[2-[3,5-difluoro-4-(trifluoromethyl)phenyl]ethyl]-N,N,4,12,19,22,26,32,35-nonamethyl-30-[(1S)-1-methylpropyl]-3,6,9,15,18,21,25,28,31,34,42-undecaoxo-2-[[4-(trifluoromethyl)phenyl]methyl]spiro[1,4,7,10,16,19,22,26,29,32,35-undecazatricyclo[34.5.1.0^10,14]dotetracont-38-ene-17,1′-cyclopentane]-23-carboxamide]	AA (a compound having 20 or more is denoted as AA)	A (a compound having 10 or more and less than 20 is denoted as A)	–	–
